The source of these data is US20220267753A1, “RATIONAL THERAPEUTIC TARGETING OF ONCOGENIC IMMUNE SIGNALING STATES IN MYELOID MALIGNANCIES VIA THE UBIQUITIN CONJUGATING ENZYME UBE2N” (CHILDREN'S HOSPITAL MEDICAL CENTER, priority 2019, published 2022).

The target in test [1] is T1, UBE2N/UBE2V1 (Homo sapiens, UniProt P61088).
T1 construct: purchased Enzo Life Science BML-UW9565
Description: Thioester bond formation assay. In kind it is biochemical. The following applies: read-out: inhibition of UBE2N-Ub thioester conjugate formation. As to the method: An in vitro Ubiquitin-E2 thioester (TE) bond formation assay was performed as described (Enzo Life Science, #BML-UW9920-0001, Farmingdale, N.Y.). The reaction was prepared as follows: 10×E2 (UBE2N/Mms2, No. BML-UW9565; UbcH5a, No. BML-UW9050; or UbcH6, Prod. No. BML-UW8710) were incubated with UC-764864 or UC-764865 at 1 or 2 μM for 30 minutes at room temperature. After the incubation period, the following reagents were added to the reaction: distilled water, 10× ubiquitination buffer, inorganic pyrophosphatase solution (100 U/mL in 20 mM Tris-HCl, pH 7.5, Sigma, 83205, St. Louis, Mo.), 50 mM DTT, 0.1 M Mg-ATP, 20×E1 (recombinant human ubiquitin-activating enzyme) and 20× biotinylated ubiquitin to a final volume of 10 p.l. The mixture was incubated for 4 hours at 37° C. The reaction was stopped by adding 10 p.l 2× non-reducing gel loading buffer. 15 p.l of the samples were run on SDS-PAGE gels and transferred to PVDF membrane. […] After washing the membrane for 6×10 mins with TBS-T on a rocking platform, total ubiquitin was detected with ECL detection reagent (Pierce™ ECL Western Blotting Substrate, #32106, Appleton, Wis.) according to the manufacturer's instructions. Detect emitted signal with Biorad ChemiDoc™ MP and analyzed with Image lab software 6.0.1 (Biorad, Hercules, Calif.) or Image J [67]. […]

Test [2] has as its system HL-60. Description: Cell proliferation MTS assay. The following applies: Homo sapiens; HL-60, MTS, 24 hours. In kind it is cell-based. As to the method:
(§1) AML cell lines (5×10^3 cells/well) were seeded in 96-well plates and grown for 24 to 96 h in serum (10%)-containing medium in the presence or absence of inhibitors at the indicated concentrations. Proliferation was analyzed by means of an MTS assay using the CellTiter 96 Aqueous One Solution Cell Proliferation Assay (Promega, Madison, Wis., USA), according to the manufacturer's instructions. Data are mean with standard deviation from three independent experiments in technical triplicates. For the screening of 160 compounds from the UC library, the cell metabolic activity was assessed at 24 hours of treatment of MOLM-13 cells. Top 15 candidates were re-screened at 2 μM, and the cell metabolic activity was determined at 24 hours of treatment. In certain experiments, cell viability was determined by staining the cells with trypan blue at a 1/2 dilution and counting total number of viable cells upon treatment with UC-764864 or DMSO control. The cells were counted daily for 4 days using an automated cell counter (Countess II FL from Life Technologies). The cell proliferation in primary AMLs in FIG. 9E was performed as follows: 50,000 cells were plated in duplicate in a 96 well plate in IMDM containing 20% heat inactivated FBS plus 10 ng/ml of each SCF, IL3, IL6, TPO, and FLT3. UC-764864 was added at the indicated concentrations and cells were incubated with drug for 3 days, at which point cell viability was measured by MTS according to manufacturer's instructions.
On the technique in general: Tetrazolium dyes change colour on reduction, which living cells bring about.

Test [3] concerns KG-1a. Nature of the test: Cell proliferation MTS assay. The format is cell-based. The following applies: Homo sapiens, 24 hours. As to the method:
as §1

Test [4] deals with Kasumi-1. Nature of the test: Cell proliferation MTS assay. The format is cell-based. The following applies: Homo sapiens; Kasumi-1, MTS, 24 hours. As to the method:
as §1

Test [5] has as its system MDS92. Nature of the test: Cell proliferation MTS assay. In kind it is cell-based. As to conditions: Homo sapiens, 24 hours. As to the method:
as §1

For test [6], the system named is MDSL. Description: Cell proliferation MTS assay. The format is cell-based. The following applies: Homo sapiens, 24 hours. As to the method:
as §1

For test [7], the system named is MOLM-14. Nature of the test: Cell proliferation MTS assay. The format is cell-based. As to conditions: Homo sapiens; MOLM-14, MTS, 24 hours. As to the method: as §1
Test [8] has as its system MV4-11. Nature of the test: Cell proliferation MTS assay. The format is cell-based. The following applies: Homo sapiens; MV4-11, MTS, 24 hours. As to the method:
as §1

In test [9] the test system is NOMO-1. Description: Cell proliferation MTS assay. As to conditions: Homo sapiens; NOMO-1, MTS, 24 hours. The format is cell-based. As to the method:
as §1

In test [10] the test system is SKM-1. Description: Cell proliferation MTS assay. The format is cell-based. The following applies: Homo sapiens; SKM-1, MTS, 24 hours. As to the method:
as §1

Test [11] relates to THP-1. Description: Cell proliferation MTS assay. The format is cell-based. As to conditions: Homo sapiens; THP-1, MTS, 24 hours. As to the method:
as §1

Test [12] has as its system patient-derived AML cells. Description: Viability (MTS) of patient-derived AML samples (PDX AMLs). The following applies: hierarchical clustering, MTS 24 h. The format is cell-based, human. As to the method:
AML cell lines (5×10^3 cells/well) were seeded in 96-well plates and grown for 24 to 96 h in serum (10%)-containing medium in the presence or absence of inhibitors at the indicated concentrations. Proliferation was analyzed by means of an MTS assay using the CellTiter 96 Aqueous One Solution Cell Proliferation Assay (Promega, Madison, Wis., USA), according to the manufacturer's instructions. Data are mean with standard deviation from three independent experiments in technical triplicates. For the screening of 160 compounds from the UC library, the cell metabolic activity was assessed at 24 hours of treatment of MOLM-13 cells. Top 15 candidates were re-screened at 2 μM, and the cell metabolic activity was determined at 24 hours of treatment. In certain experiments, cell viability was determined by staining the cells with trypan blue at a 1/2 dilution and counting total number of viable cells upon treatment with UC-764864 or DMSO control. The cells were counted daily for 4 days using an automated cell counter (Countess II FL from Life Technologies). […] UC-764864 was added at the indicated concentrations and cells were incubated with drug for 3 days, at which point cell viability was measured by MTS according to manufacturer's instructions. […]

The structures appear in SMILES notation.

T1 sequence (P61088 whole entry): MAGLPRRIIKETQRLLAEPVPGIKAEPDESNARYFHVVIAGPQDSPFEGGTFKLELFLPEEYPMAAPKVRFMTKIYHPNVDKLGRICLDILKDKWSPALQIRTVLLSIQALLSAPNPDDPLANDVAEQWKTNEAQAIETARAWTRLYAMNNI
T1 sequence (Q13404 whole entry partner): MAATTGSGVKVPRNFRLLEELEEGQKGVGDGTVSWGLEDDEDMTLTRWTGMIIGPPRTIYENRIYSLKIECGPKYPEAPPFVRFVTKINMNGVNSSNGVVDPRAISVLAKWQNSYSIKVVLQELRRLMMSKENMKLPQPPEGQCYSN

For the molecule `CCc1ccc(C(=O)C=CSc2nc3ccc(C)cc3[nH]2)cc1` [UC-764864, 1-(4-ethylphenyl)-3-[(6-methyl-1H-benzimidazol-2-yl)sulfanyl]prop-2-en-1-one], the inhibition at 1 µM in test [1] (1 μM) came out at 20%. Also, the inhibition at 2 µM in test [1] (2 μM) was found to be 80%. Also, the IC50 was 4.3 µM in [2]; above 10 µM in test [3]; 6.6 µM in test [4]; above 10 µM in test [5]; 5.6 µM in test [6]; 0.02 µM in [7]. The IC50 in [8] came out at 5 µM; in [9], 6.7 µM; in test [10], 0.4 µM; in test [11], 2.5 µM. Also, the “sensitivity class of the other 20 PDX AMLs” value in [12] (20 of 26 PDX AMLs) was “resistant”. In addition, in test [12] (six of 26 PDX AMLs), the “sensitivity class of PDX AMLs JM1, JM7, JM18, JM26, JM30, JM40” value was “sensitive”.

As usually defined, the inhibition is how much of the control response was suppressed. Usually IC50 stands for the concentration needed to halve the response being measured. Higher therefore signals a need for much substance.
